The term IC50 denotes the concentration that inhibits the measured activity by half.

Assay [1] addresses T1, Recombinant STAT3 protein (STAT3 (G127-I722)) (Homo sapiens, UniProt P40763).
T1 construct: Recombinant STAT3 protein (STAT3 (G127-I722))
As to the kind of experiment: STAT3 Fluorescence Polarization (FP) Assay. The class given is binding. The note with it: STAT3 (G127-I722) 25 nM, probe 5-FAM-GpYLPQTV-NH2 2 nM, 45-minute incubation; read-out: STAT3 (FP assay IC50 class). The essentials:
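Read-out is fluorescence polarization (mP) after 45 min at room temperature, with IC50 fitted by nonlinear regression against log compound concentration. Mixture: 25 nM STAT3 (G127-I722), 2 nM 5-FAM-GpYLPQTV-NH2 phosphopeptide, 10 mM HEPES pH 7.4 buffer, 1% DMSO.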

Assay [2] deals with T2, Recombinant STAT6 protein (STAT6 (W123-T658)) (Homo sapiens, UniProt P42226).
T2 construct: Recombinant STAT6 protein (STAT6 (W123-T658))
T2 sequence (P42226 123-658): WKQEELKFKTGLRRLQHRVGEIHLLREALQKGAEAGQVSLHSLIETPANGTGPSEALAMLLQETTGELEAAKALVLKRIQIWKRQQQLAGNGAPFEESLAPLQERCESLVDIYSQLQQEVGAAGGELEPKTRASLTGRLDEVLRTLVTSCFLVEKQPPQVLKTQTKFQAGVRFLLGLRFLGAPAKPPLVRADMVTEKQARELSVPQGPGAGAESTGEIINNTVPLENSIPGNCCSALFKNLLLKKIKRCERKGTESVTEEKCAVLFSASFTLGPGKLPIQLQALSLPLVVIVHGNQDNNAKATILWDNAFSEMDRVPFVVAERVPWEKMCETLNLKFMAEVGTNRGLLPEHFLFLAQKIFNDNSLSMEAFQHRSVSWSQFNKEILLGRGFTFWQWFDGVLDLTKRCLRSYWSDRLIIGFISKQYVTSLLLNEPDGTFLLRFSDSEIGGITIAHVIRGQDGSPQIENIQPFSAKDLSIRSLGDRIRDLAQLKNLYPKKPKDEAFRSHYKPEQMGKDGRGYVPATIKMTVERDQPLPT
The experiment in a line: STAT6 Fluorescence Polarization (FP) Assay. The class given is binding. The conditions noted are these: STAT6 (W123-T658) 250 nM, probe 5-FAM-Ap[…]-NH2 2 nM, 45-minute incubation; read-out: STAT6 (FP assay IC50 class). The essentials:
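STAT6 (W123-T658) at 250 nM was mixed with 2 nM 5-FAM-labeled phosphotyrosine peptide probe in HEPES pH 7.4 buffer with NaCl, EDTA, Tween 20 and DTT, then added to serially diluted compounds at 1% DMSO final. Polarization was read after 45 min at room temperature; IC50 came from nonlinear regression of mP versus log concentration.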

T1 sequence (P40763 127-722): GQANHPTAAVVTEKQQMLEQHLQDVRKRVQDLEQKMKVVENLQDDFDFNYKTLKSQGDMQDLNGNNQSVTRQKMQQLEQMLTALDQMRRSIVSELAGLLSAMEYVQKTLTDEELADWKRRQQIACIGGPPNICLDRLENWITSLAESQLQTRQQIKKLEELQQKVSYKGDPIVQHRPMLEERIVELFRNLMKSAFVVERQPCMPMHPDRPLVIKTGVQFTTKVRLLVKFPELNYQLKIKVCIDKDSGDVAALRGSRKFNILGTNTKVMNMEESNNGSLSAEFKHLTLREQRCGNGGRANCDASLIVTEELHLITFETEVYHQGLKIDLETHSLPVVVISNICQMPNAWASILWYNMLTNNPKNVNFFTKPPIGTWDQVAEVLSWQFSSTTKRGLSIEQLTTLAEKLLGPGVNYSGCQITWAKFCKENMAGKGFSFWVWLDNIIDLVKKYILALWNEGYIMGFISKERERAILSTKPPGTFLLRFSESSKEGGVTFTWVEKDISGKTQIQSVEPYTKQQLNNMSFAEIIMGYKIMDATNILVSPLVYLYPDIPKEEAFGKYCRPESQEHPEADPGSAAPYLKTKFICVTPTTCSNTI

In the case of `COC1(c2cncnc2C)CN(C(=O)[C@@H]2CC[C@@H]3CCC[C@H](NC(=O)c4cc5cc(C(F)(F)P(=O)(O)O)ccc5s4)C(=O)N32)C1` [Compound 721, (difluoro(2-(((3S,6S,9aS)-3-(3-methoxy-3-(4-methylpyrimidin-5-yl)azetidine-1-carbonyl)-5-oxooctahydro-1H-pyrrolo[1,2-a]azepin-6-yl)carbamoyl)benzo [b]thiophen-5-yl)methyl) phosphonic acid], the figures for the IC50 in assay [1] and in assay [2] were 0.1 to 1 µM and 3 to 30 µM, respectively.
For `Cn1ncc(C2CN(C(=O)[C@@H]3CC[C@@H]4CCC[C@H](NC(=O)c5cc6cc(C(F)P(=O)(O)O)ccc6s5)C(=O)N43)C2)c1F` (stereo partly drawn) [Compound 635, (fluoro(2-(((3S,6S,9aS)-3-(3-(5-fluoro-1-methyl-1H-pyrazol-4-yl)azetidine-1-carbonyl)-5-oxooctahydro-1H-pyrrolo[1,2-a]azepin-6-yl)carbamoyl)benzo [b]thiophen-5-yl)methyl) phosphonic acid] the same measures were 0.1 to 1 µM and 3 to 30 µM.
In the same order, the values of `O=C(NC1CCCCC2CCC(C(=O)N3CC(O)C(n4ccnn4)C3)N2C1=O)c1ccc2ccc(C(F)(F)P(=O)(O)O)cc2c1` (mixture of isomers) [Compound 871, (difluoro(7-(((3S,6S,10aS)-3-((rel-trans)-3-hydroxy-4-(1H-1,2,3-triazol-1-yl)pyrrolidine-1-carbonyl)-5-oxodecahydropyrrolo[1,2-a]azocin-6-yl)carbamoyl)naphthalen-2-yl)methyl) phosphonic acid] are 1 to 10 µM and 0.3 to 3 µM.
For `Cc1ccncc1C1CN(C(=O)[C@@H]2CC[C@@H]3CCC[C@H](NC(=O)c4cc5cc([C@@H](F)P(=O)(O)O)ccc5s4)C(=O)N32)C1` (single isomer, unassigned) [Compound 755] the same measures were < 0.1 µM and 3 to 30 µM.
As for `CC1C(c2cccnc2)CN1C(=O)[C@@H]1CC[C@@H]2CCC[C@H](NC(=O)c3cc4cc(C(F)P(=O)(O)O)ccc4s3)C(=O)N21` (stereo partly drawn) [Compound 602, (fluoro(2-(((3S,6S,9aS)-3-(2-methyl-3-(pyridin-3-yl)azetidine-1-carbonyl)-5-oxooctahydro-1H-pyrrolo[1,2-a]azepin-6-yl)carbamoyl)benzo [b]thiophen-5-yl)methyl) phosphonic acid], the IC50 is < 0.1 µM in assay [1] and 3 to 30 µM in assay [2].
In the case of `O=C(N[C@H]1CCC[C@H]2CC[C@@H](C(=O)N3CC(c4cncnc4N4CCOCC4)C3)N2C1=O)c1cc2cc([C@H](F)P(=O)(O)O)ccc2s1` (single isomer, unassigned) [Compound 857], the half-maximal inhibitory concentration (IC50) is < 0.1 µM in assay [1] and 3 to 30 µM in assay [2].
For `O=C(N[C@H]1CCCC[C@H]2CC[C@@H](C(=O)N3CC(c4cncc(-c5ccccc5)c4)C3)N2C1=O)c1cc2cc(C(F)(F)P(=O)(O)O)ccc2s1` [Compound 518, (difluoro(2-(((3S,6S,10aS)-5-oxo-3-(3-(5-phenylpyridin-3-yl)azetidine-1-carbonyl)decahydropyrrolo[1,2-a]azocin-6-yl)carbamoyl)benzo[b]thiophen-5-yl)methyl)phosphonic acid] the same measures were 0.1 to 1 µM and 3 to 30 µM.
In the same order, the values of `O=C(N[C@H]1CCCC[C@H]2CC[C@@H](C(=O)NCc3cnc4[nH]ccc4c3)N2C1=O)c1cc2cc(C(F)(F)P(=O)(O)O)ccc2s1` [Compound 1114, ((2-(((3S,6S,10aS)-3-(((1H-pyrrolo[2,3-b]pyridin-5-yl)methyl)carbamoyl)-5-oxodecahydropyrrolo[1,2-a]azocin-6-yl)carbamoyl)benzo[b]thiophen-5-yl)difluoromethyl)phosphonic acid] are 0.1 to 1 µM and 0.3 to 3 µM.

The record behind these values is patent US20250215029A1 (Recludix Pharma, Inc., priority 2022, published 2025).
